Reference: patent publication US9624170B2, “4-(piperrazin-1-yl)-pyrrolidin-2-one compounds as monoacylglycerol lipase (MAGL) inhibitors” (TAKEDA PHARMACEUTICAL COMPANY LIMITED, priority 2013, dated 2017)

Molecular target: T1, human MAGL (His-hMAGL) (Homo sapiens, UniProt Q99685)
T1 construct: made in house; host or cells: Escherichia coli BL21(DE3)
T1 sequence (Q99685 1-303): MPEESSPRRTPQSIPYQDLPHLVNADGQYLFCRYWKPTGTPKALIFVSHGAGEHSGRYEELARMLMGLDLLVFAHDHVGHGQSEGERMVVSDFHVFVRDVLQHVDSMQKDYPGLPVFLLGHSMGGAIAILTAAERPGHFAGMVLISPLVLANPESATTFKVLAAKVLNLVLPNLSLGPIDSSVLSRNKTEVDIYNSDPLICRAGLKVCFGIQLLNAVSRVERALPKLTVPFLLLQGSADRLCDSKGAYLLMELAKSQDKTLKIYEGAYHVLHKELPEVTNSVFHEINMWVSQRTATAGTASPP
Test: Measurement of MAGL inhibitory activity by mass spectrometry
Type: biochemical
Conditions: MAGL inhibitory rate, test compound 10 μM, His-hMAGL, substrate 2-arachidonylglycerol, RapidFire-mass spectrometry
How it was run: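 His-tagged human MAGL was reacted with 150 μM 2-arachidonylglycerol substrate (stock, added by 5 μL) for 10 min at room temperature, then stopped with formic acid. Arachidonic acid product was quantified by RapidFire–triple-quadrupole MS in negative SRM mode, corrected by arachidonic acid-d8, and converted to percent inhibition.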

| inhibition at 10 µM [%] | Structure (SMILES) |
| --- | --- |
| 94 | Cc1cc(-c2ccc(N3CC(N4CCN(C(=O)c5nccs5)CC4)CC3=O)cc2)n(C)n1 (centres unmarked) [Example 180, 1-(4-(1,3-dimethyl-1H-pyrazol-5-yl)phenyl)-4-(4-(1,3-thiazol-2-ylcarbonyl)piperazin-1-yl)pyrrolidin-2-one] |
| 94 | Cc1nn(C)cc1-c1ccc(N2CC(N3CCN(C(=O)c4nccs4)CC3)CC2=O)cc1 (centres unmarked) [Example 181, 1-(4-(1,3-dimethyl-1H-pyrazol-4-yl)phenyl)-4-(4-(1,3-thiazol-2-ylcarbonyl)piperazin-1-yl)pyrrolidin-2-one] |
| 92 | Cc1c(-c2ccc(N3CC(N4CCN(C(=O)c5nccs5)CC4)CC3=O)cc2)cnn1C (centres unmarked) [Example 182, 1-(4-(1,5-dimethyl-1H-pyrazol-4-yl)phenyl)-4-(4-(1,3-thiazol-2-ylcarbonyl)piperazin-1-yl)pyrrolidin-2-one] |
| 98 | O=C(c1nccs1)N1CCN(C2CC(=O)N(c3ccc(-c4ccoc4)cc3)C2)CC1 (centres unmarked) [Example 184, 1-(4-(3-furyl)phenyl)-4-(4-(1,3-thiazol-2-ylcarbonyl)piperazin-1-yl)pyrrolidin-2-one] |
| 96 | O=C(c1nccs1)N1CCN(C2CC(=O)N(c3ccc(-c4cccc(CO)c4)cc3)C2)CC1 (centres unmarked) [Example 187, 1-(3′-(hydroxymethyl)biphenyl-4-yl)-4-(4-(1,3-thiazol-2-ylcarbonyl)piperazin-1-yl)pyrrolidin-2-one] |
| 99 | O=C(c1nccs1)N1CCN(C2CC(=O)N(c3ccc(-c4ccccc4Cl)cc3)C2)CC1 (centres unmarked) [Example 188, 1-(2′-chlorobiphenyl-4-yl)-4-(4-(1,3-thiazol-2-ylcarbonyl)piperazin-1-yl)pyrrolidin-2-one] |
| 97 | Cc1nc(C)c(-c2ccc(N3CC(N4CCN(C(=O)c5nccs5)CC4)CC3=O)cc2)s1 (centres unmarked) [Example 189, 1-(4-(2,4-dimethyl-1,3-thiazol-5-yl)phenyl)-4-(4-(1,3-thiazol-2-ylcarbonyl)piperazin-1-yl)pyrrolidin-2-one] |
| 83 | O=C(c1nccs1)N1CCN(C2CC(=O)N(c3ccc(-c4ccncc4)cc3)C2)CC1 (centres unmarked) [Example 196, 1-(4-(pyridin-4-yl)phenyl)-4-(4-(1,3-thiazol-2-ylcarbonyl)piperazin-1-yl)pyrrolidin-2-one] |
| 89 | O=C(c1nccs1)N1CCN(C2CC(=O)N(c3ccc(-c4cccnc4)cc3)C2)CC1 (centres unmarked) [Example 197, 1-(4-(pyridin-3-yl)phenyl)-4-(4-(1,3-thiazol-2-ylcarbonyl)piperazin-1-yl)pyrrolidin-2-one] |
| 97 | O=C(c1nccs1)N1CCN(C2CC(=O)N(c3ccc(-c4ccco4)cc3)C2)CC1 (centres unmarked) [Example 207, 1-(4-(2-furyl)phenyl)-4-(4-(1,3-thiazol-2-ylcarbonyl)piperazin-1-yl)pyrrolidin-2-one] |
| 101 | Cc1cccc(-c2ccc(N3CC(N4CCN(C(=O)c5nccs5)CC4)CC3=O)cc2)c1 (centres unmarked) [Example 208] |
| 96 | N#Cc1ccccc1-c1ccc(N2CC(N3CCN(C(=O)c4nccs4)CC3)CC2=O)cc1 (centres unmarked) [Example 209, 4′-(2-oxo-4-(4-(1,3-thiazol-2-ylcarbonyl)piperazin-1-yl)pyrrolidin-1-yl)biphenyl-2-carbonitrile] |
| 91 | N#Cc1ccc(-c2ccc(N3CC(N4CCN(C(=O)c5nccs5)CC4)CC3=O)cc2)cc1 (centres unmarked) [Example 210, 4′-(2-oxo-4-(4-(1,3-thiazol-2-ylcarbonyl)piperazin-1-yl)pyrrolidin-1-yl)biphenyl-4-carbonitrile] |

More lines, now with the values behind:

| Structure (SMILES) | inhibition at 10 µM [%] |
| --- | --- |
| N#Cc1cccc(-c2ccc(N3CC(N4CCN(C(=O)c5nccs5)CC4)CC3=O)cc2)c1 (centres unmarked) [Example 185, 4′-(2-oxo-4-(4-(1,3-thiazol-2-ylcarbonyl)piperazin-1-yl)pyrrolidin-1-yl)biphenyl-3-carbonitrile] | 100 |
| CC(=O)Nc1cccc(-c2ccc(N3CC(N4CCN(C(=O)c5nccs5)CC4)CC3=O)cc2)c1 (centres unmarked) [Example 191, N-(4′-(2-oxo-4-(4-(1,3-thiazol-2-ylcarbonyl)piperazin-1-yl)pyrrolidin-1-yl)biphenyl-3-yl)acetamide] | 96 |
| NS(=O)(=O)c1ccc(-c2ccc(N3CC(N4CCN(C(=O)c5nccs5)CC4)CC3=O)cc2)cc1 (centres unmarked) [Example 193, 4′-(2-oxo-4-(4-(1,3-thiazol-2-ylcarbonyl)piperazin-1-yl)pyrrolidin-1-yl)biphenyl-4-sulfonamide] | 97 |
| NS(=O)(=O)c1cccc(-c2ccc(N3CC(N4CCN(C(=O)c5nccs5)CC4)CC3=O)cc2)c1 (centres unmarked) [Example 194, 4′-(2-oxo-4-(4-(1,3-thiazol-2-ylcarbonyl)piperazin-1-yl)pyrrolidin-1-yl)biphenyl-3-sulfonamide] | 96 |
| O=C(c1nccs1)N1CCN(C2CC(=O)N(c3cccc(-c4cccnc4Cl)c3)C2)CC1 (centres unmarked) [Example 199, 1-(3-(2-chloropyridin-3-yl)phenyl)-4-(4-(1,3-thiazol-2-ylcarbonyl)piperazin-1-yl)pyrrolidin-2-one] | 101 |
| O=C1Cc2ccc(-c3cccc(N4CC(N5CCN(C(=O)c6nccs6)CC5)CC4=O)c3)cc2N1 (centres unmarked) [Example 200, 6-(3-(2-oxo-4-(4-(1,3-thiazol-2-ylcarbonyl)piperazin-1-yl)pyrrolidin-1-yl)phenyl)-1,3-dihydro-2H-indol-2-one] | 98 |
| O=C(c1nccs1)N1CCN(C2CC(=O)N(c3ccnc(-c4ccccc4)c3)C2)CC1 (centres unmarked) [Example 201, 1-(2-phenylpyridin-4-yl)-4-(4-(1,3-thiazol-2-ylcarbonyl)piperazin-1-yl)pyrrolidin-2-one] | 84 |
| Cc1ccncc1-c1cccc(N2CC(N3CCN(C(=O)c4nccs4)CC3)CC2=O)c1 (centres unmarked) [Example 202, 1-(3-(4-methylpyridin-3-yl)phenyl)-4-(4-(1,3-thiazol-2-ylcarbonyl)piperazin-1-yl)pyrrolidin-2-one] | 102 |
| Cc1cnccc1-c1cccc(N2CC(N3CCN(C(=O)c4nccs4)CC3)CC2=O)c1 (centres unmarked) [Example 203, 1-(3-(3-methylpyridin-4-yl)phenyl)-4-(4-(1,3-thiazol-2-ylcarbonyl)piperazin-1-yl)pyrrolidin-2-one] | 99 |
| Cc1cc(-c2cccc(N3CC(N4CCN(C(=O)c5nccs5)CC4)CC3=O)c2)ccn1 (centres unmarked) [Example 204, 1-(3-(2-methylpyridin-4-yl)phenyl)-4-(4-(1,3-thiazol-2-ylcarbonyl)piperazin-1-yl)pyrrolidin-2-one] | 101 |
| O=C(c1nccs1)N1CCN([C@@H]2CC(=O)N(c3ccc4c(cnn4-c4ccc(F)cc4)c3)C2)CC1 [Example 205, (4R)-1-(1-(4-fluorophenyl)-1H-indazol-5-yl)-4-(4-(1,3-thiazol-2-ylcarbonyl)piperazin-1-yl)pyrrolidin-2-one] | 100 |
| Cc1cncc(-c2cccc(N3CC(N4CCN(C(=O)c5nccs5)CC4)CC3=O)c2)c1 (centres unmarked) [Example 206, 1-(3-(5-methylpyridin-3-yl)phenyl)-4-(4-(1,3-thiazol-2-ylcarbonyl)piperazin-1-yl)pyrrolidin-2-one] | 98 |
| O=C(c1nccs1)N1CCN(C2CC(=O)N(c3ccc(-c4cnn5ccccc45)cc3)C2)CC1 (centres unmarked) [Example 212, 1-(4-(pyrazolo[1,5-a]pyridin-3-yl)phenyl)-4-(4-(1,3-thiazol-2-ylcarbonyl)piperazin-1-yl)pyrrolidin-2-one] | 100 |
